Data taken from patent US8642597B2, “Pyrazole compounds for controlling invertebrate pests” (BASF SE, priority 2007, dated 2014).

How the values were obtained:
Format in all cases: in vivo
[1] = system: Cotton Aphid (aphis gossypii, Mixed Life Stages); assay: Cotton aphid (aphis gossypii, mixed life stages), cotyledon dip test; conditions: 120 h, mortality counts after 5 days, in comparison with untreated controls
Source text: (§1) The active compounds were formulated in 50:50 (vol:vol) acetone:water and 100 ppm Kinetica™ surfactant.
Cotton plants at the cotyledon stage (one plant per pot) were infested by placing a heavily infested leaf from the main colony on top of each cotyledon. The aphids were allowed to transfer to the host plant overnight, and the leaf used to transfer the aphids was removed. The cotyledons were dipped in the test solution and allowed to dry. After 5 days, mortality counts were made.

[2] = system: Cowpea Aphid (aphis craccivora); assay: Cowpea aphid (aphis craccivora), spray on potted cowpea plants; conditions: population reduction assessed after 24, 72 and 120 hours, in comparison with untreated controls
Description: The active compounds were formulated in 50:50 (vol:vol) acetone:water. The test solution was prepared at the day of use.
Potted cowpea plants colonized with 100-150 aphids of various stages were sprayed after the pest population had been recorded. Population reduction was assessed after 24, 72, and 120 hours.

[3] = system: Green Peach Aphid (Myzus persicae, Mixed Life Stages); assay: Green peach aphid (Myzus persicae, mixed life stages), pepper leaf dip test; conditions: foliar, 120 h, after 5 days, in comparison with untreated controls
Source text: as §1
Pepper plants in the 2nd leaf-pair stage (variety ‘California Wonder’) were infested with approximately 40 laboratory-reared aphids by placing infested leaf sections on top of the test plants. The leaf sections were removed after 24 hr. The leaves of the intact plants were dipped into gradient solutions of the test compound and allowed to dry. Test plants were maintained under fluorescent light (24 hour photoperiod) at about 25° C. and 20-40% relative humidity. Aphid mortality on the treated plants, relative to mortality on check plants, was determined after 5 days.

[4] = system: Vetch Aphid (Megoura viciae); assay: Vetch aphid (Megoura viciae), bean leaf disk microtiterplate test; conditions: foliar, 144 h, concentration of the test solution 2500 mg/L, 6 days
Description: The active compounds were formulated in 1:3 (vol:vol) DMSO:water with different concentrations of formulated compounds.
Bean leaf disks were placed into microtiterplates filled with 0.8% agar-agar and 2.5 ppm OPUS™. The leaf disks were sprayed with 2.5 μl of the test solution and 5 to 8 adult aphids were placed into the microtiterplates which were then closed and kept at 23±1° C. and 50±5% relative humidity under fluorescent light for 6 days. Mortality was assessed on the basis of vital, reproduced aphids. Aphid mortality and fecundity was then visually assessed.

[5] = system: Boll Weevil (Anthonomus grandis); assay: Boll weevil (Anthonomus grandis), insect diet microtiter plate test; conditions: 120 h, concentration of the test solution 2500 mg/L, egg and larval mortality after 5 days
Description: The compounds were formulated in 75:25 (vol:vol) water:DMSO.
For evaluating control of boll weevil (Anthonomus grandis) the test unit consisted of 24-well-microtiter plates containing an insect diet and 20-30 A. grandis eggs. Different concentrations of formulated compounds were sprayed onto the insect diet at 20 μl, using a custom built micro atomizer, at two replications. After application, the microtiter plates were incubated at 23±1° C. and 50±5% relative humidity for 5 days. Egg and larval mortality was then visually assessed.

SMILES: Cn1ccc(C(=O)Nc2cccnc2)n1 [Compound 1]
- mortality at 300 ppm [1]: ≥ 75%
- mortality at 300 ppm [2]: ≥ 75%
- mortality at 300 ppm [3]: ≥ 50%

SMILES: N#CN(C(=O)c1cnn(C(F)F)c1C(F)F)c1cccnc1 [Compound 210]
- mortality at 300 ppm [1]: ≥ 75%
- mortality at 300 ppm [2]: ≥ 75%
- mortality at 300 ppm [3]: ≥ 50%
- mortality at 2500 µg/mL [4]: ≥ 80%

SMILES: Cc1ccc(-n2ncc(C(=O)Nc3cccnc3)c2C(F)F)cc1 [Compound 138]
- mortality at 300 ppm [1]: ≥ 75%
- mortality at 2500 µg/mL [5]: 100%
- mortality at 300 ppm [2]: ≥ 75%
- mortality at 300 ppm [3]: ≥ 50%
- mortality at 2500 µg/mL [4]: ≥ 80%

SMILES: Cn1cc(C(=O)Nc2cccnc2)cn1 [Compound 107]
- mortality at 300 ppm [1]: ≥ 75%
- mortality at 2500 µg/mL [5]: 100%
- mortality at 300 ppm [2]: ≥ 75%
- mortality at 300 ppm [3]: ≥ 50%
- mortality at 2500 µg/mL [4]: ≥ 80%

SMILES: O=C(Nc1cccnc1)c1cnn(C(F)(F)F)c1 [Compound 205]
- mortality at 300 ppm [1]: ≥ 75%
- mortality at 300 ppm [2]: ≥ 75%
- mortality at 300 ppm [3]: ≥ 50%
- mortality at 2500 µg/mL [4]: ≥ 80%

SMILES: COc1ccccc1-n1ncc(C(=O)Nc2cccnc2)c1C(F)F [Compound 150]
- mortality at 300 ppm [1]: ≥ 75%
- mortality at 2500 µg/mL [5]: 100%
- mortality at 300 ppm [3]: ≥ 50%
- mortality at 2500 µg/mL [4]: ≥ 80%

SMILES: CO/N=C(/Nc1cccnc1)c1cn(C)nc1C(F)(F)F [Compound 242]
- mortality at 300 ppm [1]: ≥ 75%
- mortality at 300 ppm [2]: ≥ 75%
- mortality at 300 ppm [3]: ≥ 50%
- mortality at 2500 µg/mL [4]: ≥ 80%

SMILES: COc1ccc(-n2ncc(C(=O)Nc3cccnc3)c2C(F)(F)F)cc1 [Compound 226]
- mortality at 300 ppm [1]: ≥ 75%
- mortality at 300 ppm [3]: ≥ 50%
- mortality at 2500 µg/mL [4]: ≥ 80%

SMILES: CN(C(=O)c1cnn(C(F)F)c1)c1cccnc1 [Compound 222]
- mortality at 300 ppm [1]: ≥ 75%
- mortality at 300 ppm [2]: ≥ 75%
- mortality at 300 ppm [3]: ≥ 50%

SMILES: CC(C)c1c(C(=O)Nc2cccnc2)cnn1-c1ccccc1 [Compound 120]
- mortality at 300 ppm [1]: ≥ 75%
- mortality at 300 ppm [2]: ≥ 75%
- mortality at 300 ppm [3]: ≥ 50%
- mortality at 2500 µg/mL [4]: ≥ 80%

SMILES: O=C(Nc1cccnc1)c1cnn(C2CC2)c1 [Compound 119]
- mortality at 300 ppm [1]: ≥ 75%
- mortality at 300 ppm [2]: ≥ 75%
- mortality at 300 ppm [3]: ≥ 50%
- mortality at 2500 µg/mL [4]: ≥ 80%

SMILES: Cc1c(C(=O)Nc2cccnc2)cnn1C(F)F [Compound 208]
- mortality at 300 ppm [1]: ≥ 75%
- mortality at 300 ppm [2]: ≥ 75%
- mortality at 300 ppm [3]: ≥ 50%

SMILES: C#CCN(C(=O)c1cn(C)nc1C(F)(F)F)c1cccnc1 [Compound 141]
- mortality at 300 ppm [1]: ≥ 75%
- mortality at 300 ppm [2]: ≥ 75%
- mortality at 300 ppm [3]: ≥ 50%
- mortality at 2500 µg/mL [4]: ≥ 80%

SMILES: O=C(Nc1cccnc1)c1cnn(-c2ccc(Cl)cc2)c1C(F)F [Compound 86]
- mortality at 300 ppm [1]: ≥ 75%
- mortality at 2500 µg/mL [5]: 100%
- mortality at 300 ppm [2]: ≥ 75%
- mortality at 300 ppm [3]: ≥ 50%

SMILES: CCn1cc(C(=O)N(C)c2cccnc2)cn1 [Compound 187]
- mortality at 300 ppm [1]: ≥ 75%
- mortality at 300 ppm [2]: ≥ 75%
- mortality at 300 ppm [3]: ≥ 50%

SMILES: Cc1nn(C)cc1C(=O)Nc1cccnc1 [Compound 70]
- mortality at 300 ppm [1]: ≥ 75%
- mortality at 300 ppm [2]: ≥ 75%
- mortality at 300 ppm [3]: ≥ 50%

SMILES: CCc1c(C(=O)Nc2cccnc2)cnn1-c1ccc([N+](=O)[O-])cc1 [Compound 144]
- mortality at 300 ppm [1]: ≥ 75%
- mortality at 300 ppm [2]: ≥ 75%
- mortality at 300 ppm [3]: ≥ 50%
- mortality at 2500 µg/mL [4]: ≥ 80%

SMILES: O=C(Nc1cccnc1)c1cnn(-c2ccccc2)c1 [Compound 106]
- mortality at 2500 µg/mL [5]: 100%
- mortality at 300 ppm [2]: ≥ 75%

SMILES: CC(C)n1cc(C(=O)Nc2cccnc2)cn1 [Compound 97]
- mortality at 2500 µg/mL [4]: ≥ 80%

SMILES: Cn1ncc(C(=O)Nc2cccnc2)c1-c1ccccc1 [Compound 71]
- mortality at 300 ppm [1]: ≥ 75%
- mortality at 300 ppm [3]: ≥ 50%
- mortality at 2500 µg/mL [4]: ≥ 80%

SMILES: CC(C)c1c(C(=O)Nc2cccnc2)cnn1C [Compound 90]
- mortality at 300 ppm [2]: ≥ 75%

SMILES: Cc1cc(C(=O)Nc2cccnc2)n(C)n1 [Compound 3]
- mortality at 300 ppm [1]: ≥ 75%
- mortality at 300 ppm [2]: ≥ 75%
- mortality at 300 ppm [3]: ≥ 50%
- mortality at 2500 µg/mL [4]: ≥ 80%

SMILES: O=C(Nc1cccnc1)c1cnn(C(F)F)c1C(F)F [Compound 188]
- mortality at 300 ppm [1]: ≥ 75%
- mortality at 2500 µg/mL [5]: 100%
- mortality at 300 ppm [2]: ≥ 75%
- mortality at 300 ppm [3]: ≥ 50%

SMILES: CCCN(C(=O)c1cn(C)nc1C(F)(F)F)c1cccnc1 [Compound 202]
- mortality at 300 ppm [1]: ≥ 75%
- mortality at 300 ppm [2]: ≥ 75%
- mortality at 300 ppm [3]: ≥ 50%
- mortality at 2500 µg/mL [4]: ≥ 80%

SMILES: O=C(Nc1cccnc1)c1cnn(-c2ccc(F)cc2)c1I [Compound 124]
- mortality at 300 ppm [1]: ≥ 75%
- mortality at 300 ppm [2]: ≥ 75%
- mortality at 300 ppm [3]: ≥ 50%
- mortality at 2500 µg/mL [4]: ≥ 80%

SMILES: Cc1ccc(S(=O)(=O)N(C(=O)c2cn(C)nc2C(F)(F)F)c2cccnc2)cc1 [Compound 136]
- mortality at 300 ppm [1]: ≥ 75%
- mortality at 300 ppm [2]: ≥ 75%
- mortality at 300 ppm [3]: ≥ 50%
- mortality at 2500 µg/mL [4]: ≥ 80%

SMILES: O=C(Nc1cccnc1)c1cnn(-c2ccc(F)cc2)c1 [Compound 113]
- mortality at 300 ppm [2]: ≥ 75%

SMILES: O=C(Nc1cccnc1)c1cn(C(F)F)nc1C(F)(F)F [Compound 192]
- mortality at 300 ppm [1]: ≥ 75%
- mortality at 2500 µg/mL [5]: 100%
- mortality at 300 ppm [2]: ≥ 75%
- mortality at 300 ppm [3]: ≥ 50%

SMILES: CC(C)n1cc(C(=O)Nc2cccnc2)cn1 [Compound 200]
- mortality at 300 ppm [1]: ≥ 75%
- mortality at 300 ppm [2]: ≥ 75%
- mortality at 300 ppm [3]: ≥ 50%

SMILES: Cc1cc(C(=O)Nc2cccnc2)nn1C [Compound 10]
- mortality at 300 ppm [1]: ≥ 75%
- mortality at 300 ppm [2]: ≥ 75%
- mortality at 300 ppm [3]: ≥ 50%

SMILES: CC(C)N(C(=O)c1cn(C)nc1C(F)(F)F)c1cccnc1 [Compound 130]
- mortality at 300 ppm [1]: ≥ 75%
- mortality at 300 ppm [3]: ≥ 50%
- mortality at 2500 µg/mL [4]: ≥ 80%

SMILES: O=C(Nc1cccnc1)c1cnn(-c2ccccn2)c1 [Compound 105]
- mortality at 300 ppm [1]: ≥ 75%
- mortality at 2500 µg/mL [5]: 100%
- mortality at 300 ppm [3]: ≥ 50%

SMILES: Cc1c(C(=O)Nc2cccnc2)cnn1-c1ccc(F)cc1 [Compound 165]
- mortality at 300 ppm [1]: ≥ 75%
- mortality at 300 ppm [2]: ≥ 75%
- mortality at 300 ppm [3]: ≥ 50%
- mortality at 2500 µg/mL [4]: ≥ 80%

SMILES: O=C(Nc1cccnc1)c1cnn(Cc2ccc(Cl)cc2)c1 [Compound 81]
- mortality at 2500 µg/mL [5]: 100%
- mortality at 300 ppm [2]: ≥ 75%
- mortality at 300 ppm [3]: ≥ 50%

SMILES: O=C(Nc1cccnc1)c1cnn(-c2cccc([N+](=O)[O-])c2)c1C(F)F [Compound 153]
- mortality at 2500 µg/mL [5]: 100%
- mortality at 2500 µg/mL [4]: ≥ 80%

SMILES: CCCCCCCn1cc(C(=O)Nc2cccnc2)cn1 [Compound 140]
- mortality at 300 ppm [3]: ≥ 50%
- mortality at 2500 µg/mL [4]: ≥ 80%

SMILES: CCn1ncc(C(=O)Nc2cccnc2)c1C [Compound 72]
- mortality at 300 ppm [1]: ≥ 75%
- mortality at 300 ppm [2]: ≥ 75%
- mortality at 2500 µg/mL [4]: ≥ 80%

SMILES: Cc1c(C(=O)N(C)c2cccnc2)cnn1C [Compound 178]
- mortality at 300 ppm [1]: ≥ 75%
- mortality at 300 ppm [2]: ≥ 75%
- mortality at 300 ppm [3]: ≥ 50%

SMILES: O=C(Nc1cccnc1)c1cn(-c2ccc([N+](=O)[O-])cc2)nc1C(F)F [Compound 171]
- mortality at 2500 µg/mL [5]: 100%

SMILES: CN(C(=O)c1cnn(C)c1)c1cccnc1 [Compound 177]
- mortality at 300 ppm [1]: ≥ 75%
- mortality at 300 ppm [2]: ≥ 75%
- mortality at 300 ppm [3]: ≥ 50%

SMILES: CCn1cc(C(=O)N(C)c2cccnc2)c(C(F)F)n1 [Compound 182]
- mortality at 300 ppm [1]: ≥ 75%
- mortality at 300 ppm [2]: ≥ 75%
- mortality at 300 ppm [3]: ≥ 50%
- mortality at 2500 µg/mL [4]: ≥ 80%

SMILES: O=C(Nc1cccnc1)c1cnn(-c2c(F)cccc2F)c1C(F)F [Compound 162]
- mortality at 2500 µg/mL [5]: 100%
- mortality at 2500 µg/mL [4]: ≥ 80%
